We go through 26 compounds from ChEMBL document CHEMBL1146627, “Synthesis and structure-activity relationships of 1-arylmethyl-3-(1-methyl-2-amino)ethyl-5-aryl-6-methyluracils as antagonists of the human GnRH Receptor” (Bioorg Med Chem Lett, 2003).

In this assay the target is T1, Gonadotropin-releasing hormone receptor (Homo sapiens, UniProt P30968).
T1 sequence (P30968 whole entry): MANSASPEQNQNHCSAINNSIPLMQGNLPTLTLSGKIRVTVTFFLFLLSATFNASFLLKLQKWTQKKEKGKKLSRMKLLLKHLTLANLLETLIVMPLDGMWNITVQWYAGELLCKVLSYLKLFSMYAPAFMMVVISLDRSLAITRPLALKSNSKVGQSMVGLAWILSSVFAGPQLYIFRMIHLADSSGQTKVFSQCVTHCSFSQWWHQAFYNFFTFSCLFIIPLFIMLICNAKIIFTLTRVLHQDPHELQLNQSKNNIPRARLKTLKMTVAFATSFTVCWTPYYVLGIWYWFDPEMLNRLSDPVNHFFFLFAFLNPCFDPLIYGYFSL
Briefly: Binding affinity towards human gonadotropin-releasing hormone receptor expressed in HEK293 cells. Type of assay: cell-based.

By Ki is commonly meant a measure of affinity in units of concentration, obtained from inhibition or displacement. Lower therefore signals a stronger hold on the target. For `COc1cccc(-c2c(C)n(Cc3c(F)cccc3F)c(=O)n([C@H](C)CNCc3ccc(F)cc3)c2=O)c1`, the Ki was 250 nM.
As for `COc1cccc(-c2c(C)n(Cc3c(F)cccc3F)c(=O)n(C[C@H](C)N(C)CCc3ccccn3)c2=O)c1`, the Ki was 5 nM.
To `COc1cccc(-c2c(C)n(Cc3c(F)cccc3F)c(=O)n([C@H](C)CNCc3cccc(F)c3)c2=O)c1` belongs 85 nM.
On to `COc1cccc(-c2c(C)n(Cc3c(F)cccc3F)c(=O)n([C@H](C)CNCc3ccccc3F)c2=O)c1`, for which the Ki was found to be 90 nM.
The compound `COc1cccc(-c2c(C)n(Cc3c(F)cccc3F)c(=O)n([C@@H](C)CNCC(C)C)c2=O)c1` yielded a Ki of 1200 nM.
For `COc1cccc(-c2c(C)n(Cc3c(F)cccc3F)c(=O)n([C@H](C)CNC3CCCC3)c2=O)c1`, the Ki was 430 nM.
To `COc1cccc(-c2c(C)n(Cc3c(F)cccc3F)c(=O)n([C@@H](C)CNCc3ccccc3F)c2=O)c1` belongs 550 nM; to `COc1cccc(CNC[C@@H](C)n2c(=O)c(-c3cccc(OC)c3)c(C)n(Cc3c(F)cccc3F)c2=O)c1`, 20 nM; to `COc1cccc(-c2c(C)n(Cc3c(F)cccc3F)c(=O)n([C@@H](C)CN(C)CC3CC3)c2=O)c1`, 7000 nM.
Compound `COc1cccc(-c2c(C)n(Cc3c(F)cccc3F)c(=O)n([C@@H](C)CN(C)Cc3ccccc3)c2=O)c1` showed a Ki of 2000 nM.
`COc1cccc(-c2c(C)n(Cc3c(F)cccc3F)c(=O)n([C@@H](C)CNC3CCCC3)c2=O)c1` came in with a Ki of 950 nM.
In the case of `COc1cccc(-c2c(C)n(Cc3c(F)cccc3F)c(=O)n([C@H](C)CNCC(C)C)c2=O)c1` it was 190 nM; in that of `COc1cccc(-c2c(C)n(Cc3c(F)cccc3F)c(=O)n([C@H](C)CN(C)Cc3ccccc3)c2=O)c1`, 150 nM.
In the case of `COc1cccc(-c2c(C)n(Cc3c(F)cccc3F)c(=O)n([C@@H](C)CNCC3CC3)c2=O)c1`, the Ki is 1600 nM.
For the compound `COc1cccc(-c2c(C)n(Cc3c(F)cccc3F)c(=O)n(C3CCNC3)c2=O)c1` (stereo unspecified), affinity was put at a Ki of 15000 nM.
Turning to `COc1cccc(-c2c(C)n(Cc3c(F)cccc3F)c(=O)n(C3CCN(Cc4ccccc4)C3)c2=O)c1` (stereo unspecified), the Ki stood at 280 nM.
To `COc1cccc(-c2c(C)n(Cc3c(F)cccc3F)c(=O)n([C@H](C)CNCC3CC3)c2=O)c1` belongs 780 nM.
To `COc1cccc(-c2c(C)n(Cc3c(F)cccc3F)c(=O)n([C@H](C)CNCc3ccccc3)c2=O)c1` belongs 75 nM; to `COc1cccc(-c2c(C)n(Cc3c(F)cccc3F)c(=O)n([C@H](C)CNCc3ccccc3C)c2=O)c1`, 70 nM; to `COc1cccc(-c2c(C)n(Cc3c(F)cccc3F)c(=O)n([C@@H](C)CNCc3ccccc3C)c2=O)c1`, 400 nM.
On to `COc1cccc(-c2c(C)n(Cc3c(F)cccc3F)c(=O)n([C@H](C)CN(C)CC3CC3)c2=O)c1`, for which the Ki was found to be 590 nM.
To `COc1cccc(-c2c(C)n(Cc3c(F)cccc3F)c(=O)n([C@H](C)CN(C)CCc3ccccn3)c2=O)c1` belongs 20 nM; to `COc1cccc(-c2c(C)n(Cc3c(F)cccc3F)c(=O)n(C3CCN(CCc4ccccn4)C3)c2=O)c1` (stereo unspecified), 8300 nM.
To `COc1ccc(CNC[C@@H](C)n2c(=O)c(-c3cccc(OC)c3)c(C)n(Cc3c(F)cccc3F)c2=O)cc1` belongs 720 nM; to `COc1cccc(-c2c(C)n(Cc3c(F)cccc3F)c(=O)n([C@@H](C)CN(C)CCc3ccccn3)c2=O)c1`, 1800 nM.
The compound `COc1cccc(-c2c(C)n(Cc3c(F)cccc3F)c(=O)n([C@@H](C)CNCc3ccccc3)c2=O)c1` gave a Ki of 370 nM.
